Values of other authors in patent publication US8993316B2, “Methods and compositions for gene therapy and GHRH therapy” (priority 2011, dated 2015).

What was measured:
[1] = not given; remark: listed apart in the source

Row | Compound | half-life after injection | rough half-life ([1]; in vivo) | therapeutic effect duration ([1]; long acting)
1 | GHRH: growth hormone releasing hormone, a peptide hormone | roughly 8 minutes |  | 
2 | COc1cc(CC(C)N)c(OC)cc1I (stereo not drawn) [DOI, 2,5-dimethoxy-4-iodoamphetamine] |  | 12 to 15 h | ≥ 30 h
